Experimental findings from PubChem BioAssay AID210 (DTP/NCI, 2004) are described below.

This assay has as its system CD2F1 mice, ip Colon 26 adenocarcinoma, median survival T/C. The assay can be described thus: NCI In Vivo Anticancer Drug Screen. Data for tumor model Colon 26 Adenocarcinoma (intraperitoneal) in CD2F1 (CDF1) mice. The conditions noted are these: endpoint: median survival time, higher = longer survival. The method, then: The antitumor activity of compounds was measured in mice bearing transplantable tumors. Survival or tumor size were measured and the results are expressed as the measurement made in the treated group (T) divided by the measurement made in the vehicle treated control group (C). The tumor model used in this assay is Colon 26 Adenocarcinoma (intraperitoneal) in CD2F1 (CDF1) mice

Values joined by “and” are separate entries in the source; they are usually repeats but may differ in a detail not shown here. Equal entries are not always repeated. Inconclusive results and toxic doses are left out.

`C=CCCC(=O)CCCC(=O)O[C@@H]1[C@@H]2[C@H](CC1(C)C)[C@H](O)[C@@]13O[C@@H]1[C@H](O)[C@@]1(CO1)[C@@]23C`: the T/C by setting is: (dose: 6.25 micrograms/kg/injection, schedule: Q04DX002 (ip), vehicle: Klucel (hydroxypropylcellulose) (HPC)) 123 % of control; (dose: 25.0 micrograms/kg/injection, schedule: Q04DX002 (ip), vehicle: Klucel (hydroxypropylcellulose) (HPC)) 119 % of control and 120 % of control; (dose: 50.0 micrograms/kg/injection, schedule: Q04DX002 (ip), vehicle: Klucel (hydroxypropylcellulose) (HPC)) 102 % of control and 98 % of control; (dose: 100.0 micrograms/kg/injection, schedule: Q04DX002 (ip), vehicle: Klucel (hydroxypropylcellulose) (HPC)) 117 % of control; (dose: 200.0 micrograms/kg/injection, schedule: Q04DX002 (ip), vehicle: Klucel (hydroxypropylcellulose) (HPC)) 120 % of control and 88 % of control; (dose: 400.0 micrograms/kg/injection, schedule: Q04DX002 (ip), vehicle: Klucel (hydroxypropylcellulose) (HPC)) 100 % of control.
As to `Oc1cc2c3c(c1)c1cc4c(cc1c[n+]3CC2)OCO4`, the T/C by setting is: (dose: 6.25 mg/kg/injection, schedule: Q04DX003 (ip), vehicle: distilled water + Tween-80) 118 % of control; (dose: 100.0 mg/kg/injection, schedule: Q04DX003 (ip), vehicle: distilled water + Tween-80) 118 % of control.
Consider `O=c1oc2cc(N=Cc3ccccc3Cl)ccc2c2ccccc12`, for which the T/C by setting is: (dose: 50.0 mg/kg/injection, schedule: Q04DX003 (ip), vehicle: Klucel (hydroxypropylcellulose) (HPC)) 100 % of control; (dose: 100.0 mg/kg/injection, schedule: Q04DX003 (ip), vehicle: Klucel (hydroxypropylcellulose) (HPC)) 97 % of control; (dose: 200.0 mg/kg/injection, schedule: Q04DX003 (ip), vehicle: Klucel (hydroxypropylcellulose) (HPC)) 98 % of control; (dose: 400.0 mg/kg/injection, schedule: Q04DX003 (ip), vehicle: Klucel (hydroxypropylcellulose) (HPC)) 98 % of control.
Take `NC(Cc1ccc(N(CCCl)CCCl)cc1)C(=O)O` (stereo not drawn): the T/C (dose: 2.0 mg/kg/injection, schedule: Q04DX002 (ip), vehicle: Klucel (hydroxypropylcellulose) (HPC)) is 168 % of control; the T/C (dose: 4.0 mg/kg/injection, schedule: Q04DX002 (ip), vehicle: Klucel (hydroxypropylcellulose) (HPC)) is 253 % of control; the T/C (dose: 8.0 mg/kg/injection, schedule: Q04DX002 (ip), vehicle: Klucel (hydroxypropylcellulose) (HPC)) was 245 % of control; the T/C (dose: 16.0 mg/kg/injection, schedule: Q04DX002 (ip), vehicle: Klucel (hydroxypropylcellulose) (HPC)) was 156 % of control.
As for `O=C(O)c1ccc(C(=O)O)c(C(=O)O)c1.[NH-]C1CCCCC1[NH-].[Pt+2]`, the T/C by setting is: (dose: 2.0 mg/kg/injection, schedule: Q01DX004 (ip), vehicle: sodium bicarbonate) 106 % of control; (dose: 3.12 mg/kg/injection, schedule: Q04DX003 (ip), vehicle: sodium bicarbonate) 114 % of control; (dose: 4.0 mg/kg/injection, schedule: Q01DX004 (ip), vehicle: sodium bicarbonate) 101 % of control; (dose: 6.25 mg/kg/injection, schedule: Q04DX003 (ip), vehicle: sodium bicarbonate) 111 % of control; (dose: 8.0 mg/kg/injection, schedule: Q01DX004 (ip), vehicle: sodium bicarbonate) 105 % of control; (dose: 8.8 mg/kg/injection, schedule: Q01DX001 (ip), vehicle: saline) 150 % of control. Also, the T/C is 96 % of control (dose: 8.8 mg/kg/injection, schedule: Q01DX001 (iv), vehicle: saline); 105 % of control (dose: 9.1 mg/kg/injection, schedule: Q04DX004 (iv), vehicle: sodium bicarbonate); 167 % of control (dose: 12.5 mg/kg/injection, schedule: Q04DX003 (ip), vehicle: sodium bicarbonate); 87 % of control (dose: 13.2 mg/kg/injection, schedule: Q01DX001 (iv), vehicle: saline); 104 % of control (dose: 13.5 mg/kg/injection, schedule: Q04DX004 (iv), vehicle: sodium bicarbonate); 92 % of control (dose: 19.8 mg/kg/injection, schedule: Q01DX001 (ip), vehicle: saline). Also, the T/C is 114 % of control (dose: 20.0 mg/kg/injection, schedule: Q04DX004 (iv), vehicle: sodium bicarbonate); 167 % of control (dose: 25.0 mg/kg/injection, schedule: Q04DX003 (ip), vehicle: sodium bicarbonate); 96 % of control (dose: 29.6 mg/kg/injection, schedule: Q01DX001 (ip), vehicle: saline); 103 % of control (dose: 35.0 mg/kg/injection, schedule: Q04DX002 (ip), vehicle: sodium bicarbonate); 121 % of control (dose: 44.4 mg/kg/injection, schedule: Q01DX001 (iv), vehicle: saline); 159 % of control (dose: 50.0 mg/kg/injection, schedule: Q04DX003 (ip), vehicle: sodium bicarbonate). Where the note is “dose: 100.0 mg/kg/injection, schedule: Q04DX003 (ip), vehicle: sodium bicarbonate”, the T/C is 101 % of control.
Take `O=[N+]([O-])/C=C\c1ccc2c(c1)OCO2`: the T/C is 87 % of control (dose: 3.12 mg/kg/injection, schedule: Q04DX003 (ip), vehicle: Klucel (hydroxypropylcellulose) (HPC)); 105 % of control (dose: 6.25 mg/kg/injection, schedule: Q04DX003 (ip), vehicle: Klucel (hydroxypropylcellulose) (HPC)); 90 % of control (dose: 25.0 mg/kg/injection, schedule: Q04DX003 (ip), vehicle: Klucel (hydroxypropylcellulose) (HPC)).
As to `NCCNc1ccc(NCCN)c2c1C(=O)c1ccccc1C2=O`, the T/C by setting is: (dose: 1.5 mg/kg/injection, schedule: Q01DX009 (ip), vehicle: acid diluted with saline) 171 % of control; (dose: 2.0 mg/kg/injection, schedule: Q01DX009 (ip), vehicle: acid diluted with saline) 164 % of control; (dose: 3.0 mg/kg/injection, schedule: Q01DX009 (ip), vehicle: acid diluted with saline) 263 % of control; (dose: 4.0 mg/kg/injection, schedule: Q01DX009 (ip), vehicle: acid diluted with saline) 175 % of control; (dose: 6.0 mg/kg/injection, schedule: Q01DX009 (ip), vehicle: acid diluted with saline) 254 % of control; (dose: 8.0 mg/kg/injection, schedule: Q01DX009 (ip), vehicle: acid diluted with saline) 213 % of control. In addition, the T/C by setting is: (dose: 12.0 mg/kg/injection, schedule: Q01DX009 (ip), vehicle: acid diluted with saline) 214 % of control; (dose: 16.0 mg/kg/injection, schedule: Q01DX009 (ip), vehicle: acid diluted with saline) 227 % of control.
On to `N=c1ccn2c(n1)OC1C(O)C(CO)OC12` (stereo not drawn), for which the T/C by setting is: (dose: 111.0 mg/kg/injection, schedule: Q01DX009 (ip), vehicle: saline with Tween-80) 110 % of control; (dose: 167.0 mg/kg/injection, schedule: Q01DX009 (ip), vehicle: saline with Tween-80) 115 % of control; (dose: 250.0 mg/kg/injection, schedule: Q01DX009 (ip), vehicle: saline with Tween-80) 121 % of control.
`C1OC1CN1CCN(CC2CO2)CC1` (stereo not drawn): the T/C was 112 % of control and 98 % of control (dose: 3.12 mg/kg/injection, schedule: Q04DX003 (ip), vehicle: saline); 108 % of control and 120 % of control (dose: 6.25 mg/kg/injection, schedule: Q04DX003 (ip), vehicle: saline); 167 % of control (dose: 25.0 mg/kg/injection, schedule: Q04DX003 (ip), vehicle: saline); 175 % of control and 193 % of control (dose: 50.0 mg/kg/injection, schedule: Q04DX003 (ip), vehicle: saline).
`CC1=CCCC(C)(O)C2CC(CCC3(C)OC3CC1)C(C)C(=O)O2` (stereo not drawn): the T/C reads like this: (dose: 22.5 mg/kg/injection, schedule: Q04DX002 (ip), vehicle: Klucel (hydroxypropylcellulose) (HPC)) 98 % of control; (dose: 45.0 mg/kg/injection, schedule: Q04DX002 (ip), vehicle: Klucel (hydroxypropylcellulose) (HPC)) 100 % of control; (dose: 90.0 mg/kg/injection, schedule: Q04DX002 (ip), vehicle: Klucel (hydroxypropylcellulose) (HPC)) 100 % of control; (dose: 180.0 mg/kg/injection, schedule: Q04DX002 (ip), vehicle: Klucel (hydroxypropylcellulose) (HPC)) 102 % of control.
For `COc1cccc2c1C(=O)c1c(O)c3c(c(O)c1C2=O)C[C@@](O)(C(C)=O)C[C@@H]3OC1CC(O)C(O)C(C)O1` (stereo partly drawn), the T/C (dose: 31.0 mg/kg/injection, schedule: Q07DX002 (iv), vehicle: saline) was 108 % of control.
